Where a name gives a salt, the structure may show the parent alone. Read-outs that look alike come from different tables or passages of the source.

Test [1] deals with full-length human PRMT6 (Flag- and His-tagged) (Homo sapiens, UniProt Q96LA8). The test is described as follows: PRMT6 Biochemical Assay (3H-SAM Flashplate, peptide substrate). The text has this: General Materials. S-adenosylmethionine (SAM), S-adenosylhomocysteine (SAH), bicine, Tween20, dimethylsulfoxide (DMSO), bovine skin gelatin (BSG), sodium butyrate and Tris(2-carboxyethyl)phosphine hydrochloride solution (TCEP) were purchased from Sigma-Aldrich at the highest level of purity possible. ^3H-SAM was purchase from American Radiolabeled Chemicals with a specific activity of 80 Ci/mmol. 384-well streptavidin Flashplates were purchased from PerkinElmer.
Chain of full-length human PRMT6 (Flag- and His-tagged) (Q96LA8 with tags, fused parts or gaps): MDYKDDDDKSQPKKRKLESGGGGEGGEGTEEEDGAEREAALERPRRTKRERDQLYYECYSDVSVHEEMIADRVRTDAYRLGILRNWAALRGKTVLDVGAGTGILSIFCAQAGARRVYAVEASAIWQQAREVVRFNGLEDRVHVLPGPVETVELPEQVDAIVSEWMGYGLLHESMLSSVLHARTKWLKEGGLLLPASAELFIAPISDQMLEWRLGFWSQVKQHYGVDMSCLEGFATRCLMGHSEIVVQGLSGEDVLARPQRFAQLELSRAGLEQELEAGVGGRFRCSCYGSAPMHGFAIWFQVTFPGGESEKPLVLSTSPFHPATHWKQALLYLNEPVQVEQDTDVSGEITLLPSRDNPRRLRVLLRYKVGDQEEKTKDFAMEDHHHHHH
Substrates. Peptide representative of human histone H4 residues 36-50 was synthesized with an N-terminal linker-affinity tag motif and a C-terminal amide cap by 21st Century Biochemicals. The peptide was purified by high-performance liquid chromatography (HPLC) to greater than 95% purity and confirmed by liquid chromatography mass spectrometry (LC-MS). The sequence was Biot-Ahx-[…]-amide and contained a monomethylated lysine at position 44 (SEQ ID NO.:5).
Molecular Biology: Full-length human PRMT6 (NM_018137.2) transcript clone was amplified from an HEK 293 cDNA library, incorporating a flanking 5′ sequence encoding a FLAG tag ([…]) (SEQ ID NO.:6) fused directly to Ser 2 of PRMT6 and a 3′ sequence encoding a hexa His sequence (HHHHHH) (SEQ ID NO.:17) fused directly to Asp 375. The amplified gene was subcloned into pFastBacMam (Viva Biotech).
Protein Expression. Recombinant baculovirus were generated according to Bac-to-Bac kit instructions (Life Technologies). […] Infections were carried out at 37° C. for 48 hours, harvested by centrifugation, and stored at −80° C. for purification.
Protein Purification. […] Column was washed with 20 mM imidazole in the same buffer and Flag-PRMT6-His was eluted with 150 mM imidazole. Pooled fractions were dialysed against buffer N^1-A and further purified by anti-flag M2 affinity chromatography. Flag-PRMT6-His was eluted with 200 ug/ml FLAG peptide in the same buffer. Pooled fractions were dialysed in 20 mM Tris, 150 mM NaCl, 10% glycerol and 5 mM β-mercaptoethanol, pH 7.8. The purity of recovered protein was 95%.
General Procedure for PRMT6 Enzyme Assays on Peptide Substrates. The assays were all performed in a buffer consisting of 20 mM Bicine (pH=7.6), 1 mM TCEP, 0.005% BSG, and 0.002% Tween 20, prepared on the day of use. Compounds in 100% DMSO (1 ul) were spotted into a polypropylene 384-well V-bottom plates (Greiner) using a Platemate Plus outfitted with a 384-channel head (Thermo Scientific). DMSO (1 ul) was added to Columns 11, 12, 23, 24, rows A-H for the maximum signal control and 1 ul of SAH, a known product and inhibitor of PRMT6, was added to columns 11, 12, 23, 24, rows I-P for the minimum signal control. A cocktail (40 ul) containing the PRMT6 enzyme was added by Multidrop Combi (Thermo-Fisher). The compounds were allowed to incubate with PRMT6 for 30 min at room temperature, then a cocktail (10 ul) containing SAM and peptide was added to initiate the reaction (final volume=51 ul). The final concentrations of the components were as follows: PRMT6 was 1 nM, ^3H-SAM was 200 nM, non-radiolabeled SAM was 250 nM, peptide was 75 nM, SAH in the minimum signal control wells was 1 mM, and the DMSO concentration was 2%. The assays were stopped by the addition of non-radiolabeled SAM (10 ul) to a final concentration of 400 uM, which dilutes the ^3H-SAM to a level where its incorporation into the peptide substrate is no longer detectable. 50 ul of the reaction in the 384-well polypropylene plate was then transferred to a 384-well Flashplate and the biotinylated peptides were allowed to bind to the streptavidin surface for at least 1 hour before being washed once with 0.1% Tween20 in a Biotek ELx405 plate washer. The plates were then read in a PerkinElmer TopCount plate reader to measure the quantity of ^3H-labeled peptide bound to the Flashplate surface, measured as disintegrations per minute (dpm) or alternatively, referred to as counts per minute (cpm). […]

Test [2] has as its system mono-methyl arginine in RKO cells. The test is described as follows: RKO Methylation Assay, In Cell Western (ICW) for detection of mono-methyl arginine and DNA content. The test is classed as cell-based. To be noted: for EC30: Homo sapiens, RKO, 72 h. The text has this:
RKO adherent cells were purchased from ATCC (American Type Culture Collection), Manassas, Va., USA. DMEM/Glutamax medium, penicillin-streptomycin, heat inactivated fetal bovine serum, 0.05% trypsin and D-PBS were purchased from Life Technologies, Grand Island, N.Y., USA. Odyssey blocking buffer, 800 CW goat anti-rabbit IgG (H+L) antibody, and Licor Odyssey infrared scanner were purchased from Licor Biosciences, Lincoln, Nebr., USA. Mono-methyl arginine antibody was purchased from Cell Signaling Technology, Danvers, Mass., USA. Methanol was purchased from VWR, Franklin, Mass., USA. 10% Tween 20 was purchased from KPL, Inc., Gaithersburg, Md., USA. DRAQ5 was purchased from Biostatus Limited, Leicestershire, UK.
RKO adherent cells were maintained in growth medium (DMEM/Glutamax medium supplemented with 10% v/v heat inactivated fetal bovine serum and 100 units/mL penicillin-streptomycin) and cultured at 37° C. under 5% CO2.
Cell treatment, In Cell Western (ICW) for detection of mono-methyl arginine and DNA content. […] Compound (100 nL) from a 96-well source plate was added directly to 384 well cell plate. Plates were incubated at 37° C., 5% CO2 for 72 hours. After three days of incubation, plates were brought to room temperature outside of the incubator for ten minutes and blotted on paper towels to remove cell media. 50 μL of ice cold 100% methanol was added directly to each well and incubated for 30 min at room temperature. After 30 min, plates were transferred to a Biotek EL406 plate washer and washed 2 times with 100 μL per well of wash buffer (1×PBS). Next 60 μL per well of Odyssey blocking buffer (Odyssey Buffer with 0.1% Tween 20 (v/v)) were added to each plate and incubated 1 hour at room temperature. Blocking buffer was removed and 20 μL per well of primary antibody was added (mono-methyl arginine diluted 1:200 in Odyssey buffer with 0.1% Tween 20 (v/v)) and plates were incubated overnight (16 hours) at 4° C. Plates were washed 5 times with 100 μL per well of wash buffer. […] The plates were washed 5 times with 100 μL per well wash buffer then 2 times with 100 μL per well of water. Plates were allowed to dry at room temperature then imaged on the Licor Odyssey machine which measures integrated intensity at 700 nm and 800 nm wavelengths. Both 700 and 800 channels were scanned.
Calculations: First, the ratio for each well was determined by:
Each plate included fourteen control wells of DMSO only treatment (minimum activation) as well as fourteen control wells for maximum activation treated with 20 μM of a reference compound. The average of the ratio values for each control type was calculated and used to determine the percent activation for each test well in the plate. Reference compound was serially diluted three-fold in DMSO for a total of nine test concentrations, beginning at 20 μM. Percent activation was determined and EC30 curves were generated using triplicate wells per concentration of compound.

Test [3] addresses full-length human PRMT8 isoform 1 (Homo sapiens, UniProt Q9NR22). The test can be described thus: PRMT8 Biochemical Assay (3H-SAM Flashplate, peptide substrate). To be noted: single experiment or average of multiple experiments; read-out: Biochemical IC50 PRMT8. The text has this: General Materials. S-adenosylmethionine (SAM), S-adenosylhomocysteine (SAH), bicine, Tween20, dimethylsulfoxide (DMSO), bovine skin gelatin (BSG), isopropyl-β-D-thiogalactopyranoside (IPTG), and Tris(2-carboxyethyl)phosphine hydrochloride solution (TCEP) were purchased from Sigma-Aldrich at the highest level of purity possible. ^3H-SAM was purchase from American Radiolabeled Chemicals with a specific activity of 80 Ci/mmol. 384-well streptavidin Flashplates were purchased from PerkinElmer.
Substrates. Peptide representative of human histone H4 residues 31-45 was synthesized with an N-terminal linker-affinity tag motif and a C-terminal amide cap by 21st Century Biochemicals. The peptide was purified by high-performance liquid chromatography (HPLC) to greater than 95% purity and confirmed by liquid chromatography mass spectrometry (LC-MS). The sequence was Biot-Ahx-[…]-amide (SEQ ID NO.:8).
The resulting construct encodes an N-terminal GST tag and a thrombin cleavage sequence ([…] […] […] […] SPEF) (SEQ ID NO.:9) fused directly to Met 1 of PRMT8.
Protein Expression. E. coli (BL21(DE3) Gold, Stratagene) made competent by the CaCl2) method were transformed with the PRMT8 construct and ampicillin selection. Protein over-expression was accomplished by growing the PRMT8 expressing E. coli clone and inducing expression with 0.3 mM IPTG at 16° C. The culture was grown for 12 hours, harvested by centrifugation, and stored at −80° C. for purification.
Protein Purification. […] GST-tagged PRMT8 was eluted with 50 mM Tris, 2 mM glutathione, pH 7.8. Pooled fractions were cleaved by thrombin (10U) and dialysed in buffer A. GST was removed by reloading the cleaved protein sample onto glutathione sepharose column and PRMT8 was collected in the flow-through fractions. PRMT8 was purified further by ceramic hydroxyapatite chromatography. The column was washed with 50 mM phosphate buffer, 100 mM NaCl, 5% glycerol, 5 mM β-mercaptoethanol, pH 7.8 and PRMT8 was eluted by 100 mM phosphate in the same buffer. Protein was concentrated and buffer was exchanged to 50 mM Tris, 300 mM NaCl, 10% glycerol, 5 mM β-mercaptoethanol, pH 7.8 by ultrafiltration. The purity of recovered protein was 89%.
General Procedure for PRMT8 Enzyme Assays on Peptide Substrates. The assays were all performed in a buffer consisting of 20 mM Bicine (pH=7.6), 1 mM TCEP, 0.005% BSG, and 0.002% Tween 20, prepared on the day of use. Compounds in 100% DMSO (1 ul) were spotted into a polypropylene 384-well V-bottom plates (Greiner) using a Platemate Plus outfitted with a 384-channel head (Thermo Scientific). DMSO (1 ul) was added to Columns 11, 12, 23, 24, rows A-H for the maximum signal control and 1 ul of SAH, a known product and inhibitor of PRMT8, was added to columns 11, 12, 23, 24, rows I-P for the minimum signal control. A cocktail (40 ul) containing the PRMT8 enzyme was added by Multidrop Combi (Thermo-Fisher). The compounds were allowed to incubate with PRMT8 for 30 min at room temperature, then a cocktail (10 ul) containing ^3H-SAM and peptide was added to initiate the reaction (final volume=51 ul). The final concentrations of the components were as follows: PRMT8 was 1.5 nM, ^3H-SAM was 50 nM, non-radiolabeled SAM was 550 nM, peptide was 150 nM, SAH in the minimum signal control wells was 1 mM, and the DMSO concentration was 2%. The assays were stopped by the addition of non-radiolabeled SAM (10 ul) to a final concentration of 400 uM, which dilutes the ^3H-SAM to a level where its incorporation into the peptide substrate is no longer detectable. 50 ul of the reaction in the 384-well polypropylene plate was then transferred to a 384-well Flashplate and the biotinylated peptides were allowed to bind to the streptavidin surface for at least 1 hour before being washed once with 0.1% Tween20 in a Biotek ELx405 plate washer. […]

Chain of full-length human PRMT8 isoform 1 (Q9NR22 whole entry, the tested form may be a part, canonical isoform): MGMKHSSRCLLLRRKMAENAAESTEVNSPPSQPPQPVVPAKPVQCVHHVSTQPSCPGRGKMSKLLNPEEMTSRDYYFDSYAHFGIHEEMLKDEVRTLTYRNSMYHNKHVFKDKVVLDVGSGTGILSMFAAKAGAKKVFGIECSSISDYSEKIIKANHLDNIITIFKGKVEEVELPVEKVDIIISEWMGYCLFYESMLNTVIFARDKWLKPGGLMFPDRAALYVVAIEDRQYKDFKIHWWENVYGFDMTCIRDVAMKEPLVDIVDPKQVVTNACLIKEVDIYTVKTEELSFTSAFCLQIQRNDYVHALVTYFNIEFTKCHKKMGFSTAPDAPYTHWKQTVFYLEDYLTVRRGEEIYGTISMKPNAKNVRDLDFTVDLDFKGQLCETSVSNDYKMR

For `CCOCC1(COCC)CCC(c2n[nH]cc2CN(C)CCNC)CC1` [Compound 158, ([3-[4,4-bis(ethoxymethyl)cyclohexyl]-1H-pyrazol-4-yl]methyl)(methyl)[2-(methylamino)ethyl]amine hydrochloride salt], the IC50 (in general, the midpoint of a concentration-inhibition curve) in test [1] (Biochemical IC50 PRMT6) was less than 100 nM; in test [1] (Biochemical IC50 PRMT6, single experiment or average of multiple experiments), 91 nM. Further, the EC30 (commonly the concentration at which the effect reaches the 30% level) in test [2] (read-out: In Cell Western EC30, RKO cells, 72 hours compound incubation, mono-methyl arginine signal normalised to DNA content (DRAQ5), percent activation vs 20 μM reference compound) is less than 3000 nM; in test [2] (read-out: In Cell Western EC30, RKO cells, 72 hours incubation, mono-methyl arginine signal normalised to DNA content, single experiment or average of multiple experiments), 8 nM.
As for `CN(CCN)Cc1c[nH]nc1C1CCC(N2CCOCC2)CC1` (stereo not shown) [Compound 43, N^1-methyl-N^1-((3-(4-morpholinocyclohexyl)-1H-pyrazol-4-yl)methyl)ethane-1,2-diamine], in test [3], the IC50 was 11.6 nM. In addition, the EC30 in test [2] (RKO cells, 72 hours incubation, mono-methyl arginine signal normalised to DNA content, single experiment or average of multiple experiments, read-out: In Cell Western EC30) was 2600 nM. Further, in test [2] (RKO cells, 72 hours compound incubation, mono-methyl arginine signal normalised to DNA content (DRAQ5), percent activation vs 20 μM reference compound), the “In Cell Western EC30” value is on record as “A (“A” indicates an EC30 ≤ 3.00 μM)”.

The values are drawn from patent publication US11512053B2, “Arginine methyltransferase inhibitors and uses thereof” (priority 2013, dated 2022).
